From patent publication US20260209152A1, “Substituted Hydroxystilbene Compounds and Derivatives, Synthesis and Uses Thereof” (Kynan Duke IP, LLC, priority 2019, published 2026)
Like-named read-outs stand apart in the source and are kept apart here.

Legend:
Format in all cases: cell-based, human
[1] = test system: Kidney A-498; assay: CellTiter Glo cell viability assay; settings: read-out: IC50
Method: 1.7*10^3 cells/well were seeded in quadruplicates in 96-well plate after plating. […] Cell growth was assessed on day 1, 3 and 5 after drug treatments using the CellTiter Glo Luminescence Cell Viability Assay (Promega) according to manufacturer's protocol. Thermo Scientific Varioskan LUX Multimode Microplate instrument was used for plate reading. Data are expressed as mean luminescence (arbitrary units) ±S.D.
Cell Viability Assays were employed to determine the concentration of Compound 1 (KYN-001) and analogues where the response is reduced by half. […] GraphPad Prism 7 software was used to fit dose response curves. Relative Luminescence Units were plotted against the log values of the doses used and the nonlinear regression model was used for data analysis.
The protocol for cell proliferation was optimized for Compound 8 (KYN-119) to enable a more accurate assessment of its low IC50 value. […]

[2] = test system: Cancer cells including pancreatic, bladder, kidney, colon, breast, lung, liver and osteosarcomas; assay: CellTiter Glo cell viability assay, panel of cancer cell lines; settings: SAR discussion based on IC50 values in Tables 1 to 5; compared with 1 [KYN-001]
Method: Compounds 1 to 15 were evaluated and their effect on cancer growth examined in cell viability assays on multiple cancer types (Tables 1 to 5). Cancer cells including pancreatic, bladder, kidney, colon, breast, lung, liver and osteosarcomas obtained from ATCC (American Type Culture Collection) were authenticated before use by Short Tandem Repeat genomic analysis (Reid Y, Storts D, Riss T and Minor L. Authentication of Human Cell Lines by STR DNA Profiling Analysis. 2013 May 1. In: Markossian S, Sittampalam G S, Grossman A, et al., editors. Assay Guidance Manual. Bethesda (MD): Eli Lilly & Company and the National Center for Advancing Translational Sciences; 2004.). Experimental protocol for each cancer cell line was verified and optimized according to literature reports before use (Tables 1 to 3).
(§1) 1.7*10^3 cells/well were seeded in quadruplicates in 96-well plate after plating. Drugs were added at 5 μM and 2-fold dilutions over 18 concentrations (0.000038146-5 […] range) to generate a dose-response curve. Cell growth was assessed on day 1, 3 and 5 after drug treatments using the CellTiter Glo Luminescence Cell Viability Assay (Promega) according to manufacturer's protocol. Thermo Scientific Varioskan LUX Multimode Microplate instrument was used for plate reading. Data are expressed as mean luminescence (arbitrary units) ±S.D.
(§2) Cell Viability Assays were employed to determine the concentration of Compound 1 (KYN-001) and analogues where the response is reduced by half. For each treatment of cancer cells, 1, 2, 5, 10 and 20 μM solutions of compounds were applied. GraphPad Prism 7 software was used to fit dose response curves. Relative Luminescence Units were plotted against the log values of the doses used and the nonlinear regression model was used for data analysis.
(§3) The protocol for cell proliferation was optimized for Compound 8 (KYN-119) to enable a more accurate assessment of its low IC50 value. In this protocol, 18 dosages (2 fold dilutions ranging from 0.000038146 to 5 μM) were applied to cells seeded in 96-well plates, and Luminescence was measured after 1, 3 and 5 days upon treatments.

[3] = test system: Pancreatic MIA PaCa-2; assay: CellTiter Glo cell viability assay; settings: read-out: IC50
Method: as §1, §2, §3
Day 3 upon treatment of MIA PaCa_2 pancreatic cancer cells, 24 h after plating (11 dilutions), as assessed by CellTiter Glow Assay.

[4] = test system: Bladder RT-112; assay: CellTiter Glo cell viability assay; settings: Homo sapiens, RT-112, 72 h, Table 4: 3 Days of treatment; 18 2-fold dilutions 5-0.00003 μM; Average (1, 8) or single Exp A-D; read-out: IC50
Method: as §1, §2, §3

[5] = Homo sapiens, A498, 72 h, Table 4: 3 Days of treatment, 18 2-fold dilutions 5-0.00003 μM, Average (1, 8) or single Exp A-D
[6] = Homo sapiens, A498, Table 5A: 11 dilutions 3-0.00001 μM, single experiments Exp E-K
[7] = Table 5A: 11 dilutions 3-0.00001 μM, single experiments Exp E-K
[8] = Homo sapiens, MIA PaCa-2, 72 h, Table 4: 3 Days of treatment, 18 2-fold dilutions 5-0.00003 μM, Average (1, 8) or single Exp A-D
[9] = Homo sapiens, MIA PaCa-2, Table 5A: 11 dilutions 3-0.00001 μM, single experiments Exp E-K
[10] = Table 5A: 11 dilutions 3-0.00001 μM, single experiments Exp E-K, listed as KYN-139
[11] = Table 5A: 11 dilutions 3-0.00001 μM, single experiments Exp E-K, listed as KYN-140

Compound | IC50 [3, 9] | IC50 [1, 6] | Cancer cell viability inhibition, statement in words [2] | also measured
C/C=C\Cc1c(/C=C/c2ccc(O)c(OC)c2)cc(O)cc1OC [Compound 3, 4-((Z)-but-2-en-1-yl)-3-((E)-4-hydroxy-3-methoxystyryl)-5-methoxyphenol] | – | – | – | IC50 [1, 5]: 361 nM; IC50 [1, 10]: 545 nM; IC50 [3, 8]: 381 nM; IC50 [3, 10]: 520 nM
C=CC(C)c1c(/C=C/c2ccc(O)c(OC)c2)cc(O)cc1OC (stereo not shown) [Compound 4, (E)-4-(but-3-en-2-yl)-3-(4-hydroxy-3-methoxystyryl)-5-methoxyphenol] | – | – | – | IC50 [1, 5]: 667 nM; IC50 [1, 11]: 754 nM; IC50 [3, 8]: 755 nM; IC50 [3, 11]: 746 nM
C/C=C/Cc1c(/C=C/c2ccc(O)c(OC)c2)cc(O)cc1OCC [Compound 5, 4-((E)-But-2-en-1-yl)-3-ethoxy-5-((E)-4-hydroxy-3-methoxystyryl)phenol] | – | 1190 nM | – | IC50 ([3]; Table 5A: 11 dilutions 3-0.00001 μM, single experiments Exp E-K, listed as KYN-153): 27.5 nM
COc1cc(/C=C/c2cc(O)cc(OC)c2Cc2ccccc2)ccc1O [Compound 7, (E)-4-benzyl-3-(4-hydroxy-3-methoxystyryl)-5-methoxyphenol] | – | 100 to 1000 nM | – | IC50 [1, 5]: 288 nM; IC50 [1, 7]: 199 nM; IC50 [4]: 170 nM
COc1cc(/C=C/c2cc(O)cc(OC)c2CC=C(C)C)ccc1NS(C)(=O)=O [Compound 25, (E)-N-(4-(5-hydroxy-3-methoxy-2-(3-methylbut-2-en-1-yl)styryl)-2-methoxyphenyl)methanesulfonamide] | – | 15000 nM | – | IC50 [3, 8]: 7740 nM
COc1cc(/C=C\c2cc(O)cc(OC)c2CC=C(C)C)ccc1NS(C)(=O)=O [Compound 26, (Z)—N-(4-(5-hydroxy-3-methoxy-2-(3-methylbut-2-en-1-yl)styryl)-2-methoxyphenyl)methanesulfonamide] | – | – | Total loss of the anti-proliferative effect | –
CCOc1cc(O)cc(/C=C/c2ccc(NC(=O)CN)c(OC)c2)c1CC=C(C)C [Compound 32, (E)-2-Amino-N-(4-(3-ethoxy-5-hydroxy-2-(3-methylbut-2-en-1-yl)styryl)-2-methoxyphenyl)acetamide] | – | 1840 nM | – | –
CCOc1cc(O)cc(/C=C/c2ccc(NC(=O)CCC(=O)O)c(OC)c2)c1CC=C(C)C [Compound 37, (E)-4-((4-(3-Ethoxy-5-hydroxy-2-(3-methylbut-2-en-1-yl)styryl)-2-methoxyphenyl)amino)-4-oxobutanoic acid] | > 3000 nM | – | – | –
COc1cc(/C=C/c2cc([N+](=O)[O-])cc(OC)c2CC=C(C)C)ccc1O [Compound 42, (E)-2-Methoxy-4-(3-methoxy-2-(3-methylbut-2-en-1-yl)-5-nitrostyryl)phenol] | – | ~3000 nM | almost complete loss of anticancer activity | –
COc1cc(/C=C/c2cc(O)cc(C(F)(F)F)c2CC=C(C)C)ccc1O [Compound 46, (E)-3-(4-hydroxy-3-methoxystyryl)-4-(3-methylbut-2-en-1-yl)-5-(trifluoromethyl)phenol] | – | – | complete loss of biological activity | –
CCOc1cc(O)cc(/C=C/c2ccc3[nH]c(=O)oc3c2)c1CC=C(C)C [Compound 52, (E)-6-(3-Ethoxy-5-hydroxy-2-(3-methylbut-2-en-1-yl)styryl)benzo[d]oxazol-2(3H)-one] | – | – | no significant activity | –

Continued, in another order:

IC50 [3, 9] | Compound | IC50 [1, 6] | Cancer cell viability inhibition, statement in words [2] | also measured
100 to 1000 nM | C/C=C/Cc1c(/C=C/c2ccc(O)c(OC)c2)cc(O)cc1OC [Compound 2, 4-((E)-but-2-en-1-yl)-3-((E)-4-hydroxy-3-methoxystyryl)-5-methoxyphenol] | 100 to 1000 nM | biological activity comparable with 1 | IC50 [1, 5]: 117 nM; IC50 [1, 7]: 132 nM; IC50 [3, 8]: 119 nM; IC50 [3, 7]: 135 nM
1280 nM | C=CCc1c(/C=C/c2ccc(O)c(OC)c2)cc(O)cc1OC [Compound 6, (E)-4-allyl-3-(4-hydroxy-3-methoxystyryl)-5-methoxyphenol] | 1090 nM | – | IC50 [1, 5]: 1590 nM; IC50 [4]: 862 nM
> 3000 nM | COc1cc(O)cc(/C=C/c2ccc(O)c(N(C)C)c2)c1CC=C(C)C [Compound 16, (E)-3-(3-(Dimethylamino)-4-hydroxystyryl)-5-methoxy-4-(3-methylbut-2-en-1-yl)phenol] | > 3000 nM | inactive or weakly active | –
~1000 nM | COc1cc(/C=C/c2cc(O)cc(OC)c2CC=C(C)C)cc(O)c1O [Compound 18, (E)-5-(5-Hydroxy-3-methoxy-2-(3-methylbut-2-en-1-yl)styryl)-3-methoxybenzene-1,2-diol] | ~3000 nM | – | –
921 nM | COc1cc(O)cc(/C=C/c2cc(O)cc(OC)c2CC=C(C)C)c1 [Compound 19, (E)-3-(3-Hydroxy-5-methoxystyryl)-5-methoxy-4-(3-methylbut-2-en-1-yl)phenol] | > 3000 nM | strongly weakened activity | –
> 3000 nM | COc1cc(/C=C/c2cc(O)cc(OC)c2CC=C(C)C)ccc1C(=O)O [Compound 21, (E)-4-(5-Hydroxy-3-methoxy-2-(3-methylbut-2-en-1-yl)styryl)-2-methoxybenzoic acid] | > 3000 nM | – | IC50 [1, 7]: ~3000 nM
100 to 1000 nM | CCOc1cc(O)cc(/C=C/c2ccc(NCC(=O)OC)c(OC)c2)c1CC=C(C)C [Compound 34, Methyl (E)-(4-(3-ethoxy-5-hydroxy-2-(3-methylbut-2-en-1-yl)styryl)-2-methoxyphenyl)glycinate] | – | – | IC50 [3, 7]: 173 nM
> 3000 nM | [H]/N=C(\N)Nc1ccc(C=Cc2cc(O)cc(OCC)c2CC=C(C)C)cc1OC [Compound 38, (E)-1-(4-(3-ethoxy-5-hydroxy-2-(3-methylbut-2-en-1-yl)styryl)-2-methoxyphenyl)guanidine] | 100 to 1000 nM | – | IC50 [1, 7]: ~100 nM
> 3000 nM | CCOc1cc(O)cc(/C=C/c2ccc(NC=O)c(O)c2)c1CC=C(C)C [Compound 40, (E)-N-(4-(3-Ethoxy-5-hydroxy-2-(3-methylbut-2-en-1-yl)styryl)-2-hydroxyphenyl)formamide] | 2930 nM | very strongly weakened activity | –
> 3000 nM | CCOc1cc(O)cc(/C=C/c2ccc(O)c(NC=O)c2)c1CC=C(C)C [Compound 41, (E)-N-(5-(3-Ethoxy-5-hydroxy-2-(3-methylbut-2-en-1-yl)styryl)-2-hydroxyphenyl)formamide] | – | inactive or weakly active | –
~3000 nM | COc1cc(/C=C/c2cc(N)cc(OC)c2CC=C(C)C)ccc1O [Compound 43, (E)-4-(5-Amino-3-methoxy-2-(3-methylbut-2-en-1-yl)styryl)-2-methoxyphenol] | ~3000 nM | No significant enhancement of activity | –
1160 nM | COc1cc(/C=C/c2cc(NC=O)cc(OC)c2CC=C(C)C)ccc1O [Compound 44, (E)-N-(3-(4-Hydroxy-3-methoxystyryl)-5-methoxy-4-(3-methylbut-2-en-1-yl)phenyl)formamide] | 2040 nM | No significant enhancement of activity | –
